Laboratory results reported in US20260234144A1 (TAY THERAPEUTICS LIMITED, priority 2023, published 2026).

System: R223X stop codon in the mutated luciferase gene, ADXC8 luciferase reporter cell line
Assay: cells
Format: cell-based
Details: ADXC8 cells, 24 hours; for Emax / EC (100% of 200 uM G418 response): 24 h; for Emax: read-out: Fold Over Control, maximum fold response relative to 200 μM G418; for EC (100% of 200 uM G418 response): read-out: pC100%, negative logarithm of the concentration giving the same response as 200 μM G418

Compound	Emax [%]	EC (100% of 200 uM G418 response) [µM]	pC100% (negative logarithm of the concentration giving the same response as 200 μM G418)
CN1CCC(Nc2nc(N)c3c(O)ccnc3n2)CC1 [Example 244, 4-amino-2-((1-methylpiperidin-4-yl)amino)pyrido[2,3-d]pyrimidin-5-ol]	0 to 100	> 100	–
Cc1cc(C)c2c(N)nc(NCCN3CC(C(F)(F)F)C3)nc2n1 [Example 166]	100 to 3000	10 to 100	–
CN1CCC(Nc2nc(N)c3ccc(-c4cccc(CO)c4)nc3n2)CC1 [Example 92]	100 to 3000	10 to 100	–
CNCCNc1nc(N)c2c(C)cc(C)nc2n1 [Example 285]	–	1 to 10	–
COc1ccc(CNc2ccc3c(N)nc(NC4CCN(C)CC4)nc3n2)c(OC)c1 [Example 41, N^7-(2,4-dimethoxybenzyl)-N2-(1-methylpiperidin-4-yl)pyrido[2,3-d]pyrimidine-2,4,7-triamine]	0 to 100	> 100	–
CN1CCC(Nc2nc(N)c3cc(-c4cnn(C)c4)cnc3n2)CC1 [Example 679]	0 to 100	> 100	–
Cc1cc(C)c2c(N)nc(NCCN3CC4(COC4)C3)nc2n1 [Example 30, N^2-(2-(2-oxa-6-azaspiro[3.3]heptan-6-yl)ethyl)-5,7-dimethylpyrido[2,3-d]pyrimidine-2,4-diamine]	100 to 3000	10 to 100	–
CN1CCC(Nc2nc(N)c3ccc(-c4cccc(C(N)=O)c4)nc3n2)CC1 [Example 70]	100 to 3000	10 to 100	–
CN1CCC(Nc2nc(N)c3ccc(-c4ccc(C(N)=O)cc4)nc3n2)CC1 [Example 51]	0 to 100	> 100	–
Nc1nc(NC23CCN(CC2)CC3)nc2nc(-c3ccccc3)c3c(c12)CCC3 [Example 127, 6-phenyl-N^3-(quinuclidin-4-yl)-8,9-dihydro-7H-cyclopenta[4,5]pyrido[2,3-d]pyrimidine-1,3-diamine]	100 to 3000	0.1 to 1	–
CN1CCC(Nc2nc(N)c3ccc(C(=O)O)nc3n2)CC1 [Example 236, 4-amino-2-((1-methylpiperidin-4-yl)amino)pyrido[2,3-d]pyrimidine-7-carboxylic acid]	0 to 100	> 100	–
Cc1cc(C)c2c(N)nc(NC3CCN(Cc4cccc(C#N)c4)CC3)nc2n1 [Example 499]	100 to 3000	1 to 10	–
Cc1cc(C)c2c(NCC(F)F)nc(N[C@@H]3CCN(C)C3)nc2n1 [Example 636]	–	1 to 10	–
Cc1cc(C)c2c(NC3CC3)nc(NC3CCN(C)CC3)nc2n1 [Example 320]	100 to 3000	1 to 10	–
Cc1cc(C)c2c(N)nc(NC[C@@H]3CCCN3)nc2n1 [Example 182]	0 to 100	> 31.6	–
CNc1nc(N[C@@H]2CCN(C)C2)nc2nc(OC)cc(C)c12 [Example 616]	100 to 3000	1 to 10	–
CN1CCC(Nc2nc(N)c3ccc(Cl)nc3n2)CC1 [Example 23, 7-chloro-N^2-(1-methylpiperidin-4-yl)pyrido[2,3-d]pyrimidine-2,4-diamine]	100 to 3000	10 to 100	–
Cc1cc(C)c2c(N)nc(NC3CCC(N(C)C)CC3)nc2n1 (stereo not shown) [Example 204]	100 to 3000	1 to 10	–
CNc1nc(N[C@H]2CN(C)C[C@H]2O)nc2nc3c(c(C)c12)CCC3 [Example 361]	100 to 3000	1 to 10	–
Cc1cc(C)c2c(N)nc(N[C@H]3CCNC[C@@H]3F)nc2n1 [Example 590]	–	1 to 10	–
Cc1cc(-c2ccccc2)nc2nc(N[C@@H]3CCNC3)nc(N)c12 [Example 301]	–	1 to 10	–

Compound	Emax [%]	EC (100% of 200 uM G418 response) [µM]	pC100% (negative logarithm of the concentration giving the same response as 200 μM G418)
CN1CCC(Nc2nc(N)c3cc(-c4ccn(C)n4)cnc3n2)CC1 [Example 648]	0 to 100	> 100	–
Cc1cc(C)c2c(N)nc(NC3CCN(Cc4ccccc4C(F)(F)F)CC3)nc2n1 [Example 490]	100 to 3000	10 to 100	–
COC(=O)c1ccc2c(N)nc(NC3CCN(C)CC3)nc2n1 [Example 235, methyl 4-amino-2-((1-methylpiperidin-4-yl)amino)pyrido[2,3-d]pyrimidine-7-carboxylate]	0 to 100	> 100	–
CC(=O)c1cnc2nc(NC3CCN(C)CC3)nc(N)c2c1 [Example 125, 1-{4-amino-2-[(1-methylpiperidin-4-yl)amino]pyrido[2,3-d]pyrimidin-6-yl}ethenone]	0 to 100	> 100	–
CN1CCC(Nc2nc(N)c3ccc(-c4cccc(C(F)(F)F)c4)nc3n2)CC1 [Example 67]	100 to 3000	1 to 10	–
CNc1nc(N[C@H]2CNC[C@H]2O)nc2nc3c(c(C)c12)CCC3 [Example 360]	100 to 3000	10 to 100	–
CN1CCC(Nc2nc(N)c3ccc(-c4ccccc4S(C)(=O)=O)nc3n2)CC1 [Example 116]	0 to 100	> 100	–
CC(C)c1ccnc2nc(NC3CCN(C)CC3)nc(N)c12 [Example 246, 5-isopropyl-N^2-(1-methylpiperidin-4-yl)pyrido[2,3-d]pyrimidine-2,4-diamine]	0 to 100	> 100	–
Cc1cc(C)c2c(N)nc(NCCN3CC4(CCCO4)C3)nc2n1 [Example 167]	0 to 100	> 31.6	–
CNCc1cccc(-c2ccc3c(N)nc(NC4CCN(C)CC4)nc3n2)c1 [Example 109]	100 to 3000	10 to 100	–
Cc1cc(C)c2c(N)nc(NC3CCN(Cc4cc(C(F)(F)F)ccc4O)CC3)nc2n1 [Example 541]	0 to 100	> 31.6	–
Cc1cc(-c2ccccc2)c2c(N)nc(NC3CCN(C)CC3)nc2n1 [Example 13, 7-methyl-N^2-(1-methylpiperidin-4-yl)-5-phenylpyrido[2,3-d]pyrimidine-2,4-diamine]	0 to 100	> 31.6	–
CNc1nc(NC2CCNCC2)nc2nc(C)c3c(c12)CCC3 [Example 552]	–	0.1 to 1	–
CNc1nc(N[C@H]2CNCC[C@@H]2O)nc2nc(C)cc(C)c12 [Example 608]	–	1 to 10	–
CNc1nc(N[C@@H]2CCCN(Cc3ccccc3)C2)nc2nc(C)cc(C)c12 [Example 399]	100 to 3000	1 to 10	–
CNc1nc(NC2C3CCC2CN(C(C)C)C3)nc2nc(C)cc(C)c12 (single isomer, unassigned) [Example 435]	100 to 3000	–	++ (pC100% > 5.0 ≤ 6.0)
CNc1nc(N[C@H]2CNC[C@H]2F)nc2nc(C)cc(C)c12 [Example 335]	100 to 3000	1 to 10	–
Cc1cc(C)c2c(N)nc(NC3CCN(CC(F)(F)F)CC3)nc2n1 [Example 178]	0 to 100	> 100	–
Cc1nc2nc(NC3CCN(C)CC3)nc(N)c2c2c1CCC2 [Example 11, 6-methyl-N^3-(1-methylpiperidin-4-yl)-8,9-dihydro-7H-cyclopenta[4,5]pyrido[2,3-d]pyrimidine-1,3-diamine]	100 to 3000	0.1 to 1	–
Cc1cc(C)c2c(N)nc(NC[C@@H]3CNCCO3)nc2n1 [Example 176]	100 to 3000	1 to 10	–
